Experimental data from patent US8748601B2, “Selective serine/threonine kinase inhibitors” (The Regents of the University of California, priority 2003, dated 2014).

Legend:
[1] = molecular target: T1, Rsk2 CTD (Homo sapiens, UniProt P51812); assay: Rsk2 CTD in vitro kinase assay, wild type; type: biochemical; conditions: read-out: IC50 for RSK2
T1 construct: We tested the halomethylketones against the Rsk2 CTD by adapting an in vitro kinase assay; made in house
From the text: We tested the halomethylketones against the Rsk2 CTD by adapting an in vitro kinase assay developed by Chrestensen and Sturgill, J, Biol. Chem. 277:27733 (2002).

[2] = system: rpS6 Ser235/236 phosphorylation; assay: PMA-stimulated rpS6 Ser235/236 phosphorylation in HEK-293 cells; type: cell-based; conditions: 300 nM fmk-pa together with rapamycin, HEK-293, PMA
Procedure: (§1) Confluent HEK-293 cells in 12-well plates were deprived of serum for 2 h and subsequently treated with the indicated concentrations of inhibitors for 1 h at 37° C. After stimulation with PMA ([…]) for 30 min, cells were washed with cold PBS and harvested in either PBS lysis buffer (FIG. 9c) or hypertonic lysis buffer (FIG. 10). Click chemistry was performed with TAMRA-N3 in lysates from cells treated with fmk-pa. Proteins were analyzed by in-gel fluorescence scanning or Western blotting.
Serum-starved HEK-293 cells were treated with the indicated concentrations of rapamycin in the absence (left lanes) or presence (right lanes) of 300 nM fmk-pa for 1 h and stimulated with PMA (100 ng/mL) for 30 min. Proteins were resolved by 10% SDS-PAGE and detected by Western blotting with antibodies to phospho-Ser235/236 rpS6, phospho-Ser386 RSK, and total RSK2. […] Percent rpS6 Ser235/236 phosphorylation was determined by quantification of Western blots (e.g., FIG. 3a) relative to DMSO controls using ImageJ. Data represent mean±s.e.m. from 3 independent experiments.

[3] = system: RSK; assay: RSK modification by fmk-pa in primary mouse macrophages (click chemistry); type: cell-based; conditions: pretreated for 1 h, LPS-stimulated
Procedure: Confluent macrophages in 12-well plates were incubated in DMEM supplemented with 20 mM Hepes [pH 7.4] and 0.5% FBS for […] prior to treatment with the indicated concentrations of fmk-pa for 1 h at 37° C. After stimulation with either PMA ([…]) or LPS ([…]) for 30 min, cells were washed with cold PBS and harvested in PBS lysis buffer. Click chemistry was performed with TAMRA-N3 and proteins were subsequently analyzed by in-gel fluorescence scanning or Western blotting.
FIG. 11. Fmk-pa and click chemistry reveal the existence of a CTD-independent pathway for RSK Ser386 phosphorylation. […] Macrophages were cultured in 0.5% serum for 20 h and subsequently treated with the indicated concentrations of fmk-pa for 1 h. Cells were stimulated with either PMA (100 ng/mL) or LPS (1 mg/mL) for 30 min and harvested in PBS. Proteins were resolved by 10% SDS-PAGE and detected by Western blotting with antibodies to phospho-Ser386 RSK and total RSK2. […] Data represent mean±s.e.m. from 3 independent experiments. […] Proteins were resolved by 10% SDS-PAGE and detected by in-gel fluorescence scanning. […] Eluted proteins were resolved by 10% SDS-PAGE and detected by Western blotting with streptavidin-HRP or antibodies to RSK1, RSK2, and phospho-Ser386 RSK.

[4] = system: Rsk; assay: Inhibition of RSK by fmk-pa (click chemistry, PMA-stimulated HEK-293 cells); type: cell-based; conditions: FIG. 9
Procedure: Click reactions were performed as previously described by Speers et al., “Profiling enzyme activities in vivo using click chemistry methods”. Chem Biol 11, 535-46 (2004). Briefly, RSK2 CTD (30 nM) pretreated with the indicated concentrations of fmk-pa, or lysates from fmk-pa-pretreated cells were incubated with TAMRA-N3 or biotin-N3 ([…]), TCEP (1 mM), CuSO4 (1 mM), and TBAT ([…]) in PBS [pH 7.4] containing 1% SDS for 1 h at room temperature.
as §1
RSK2 CTD was treated with the indicated concentrations of fmk-pa for 1 h followed by […] fmk-BODIPY for 1 h. After click conjugation with TAMRA-N3 (see Methods), proteins were resolved by 10% SDS-PAGE and detected by sequential in-gel fluorescence scanning using filters specific for TAMRA and BODIPY. […] Proteins were resolved by 10% SDS-PAGE and detected by in-gel fluorescence scanning (left) and Coomassie blue staining (right).

T1 sequence (P51812 422-679 limits assumed): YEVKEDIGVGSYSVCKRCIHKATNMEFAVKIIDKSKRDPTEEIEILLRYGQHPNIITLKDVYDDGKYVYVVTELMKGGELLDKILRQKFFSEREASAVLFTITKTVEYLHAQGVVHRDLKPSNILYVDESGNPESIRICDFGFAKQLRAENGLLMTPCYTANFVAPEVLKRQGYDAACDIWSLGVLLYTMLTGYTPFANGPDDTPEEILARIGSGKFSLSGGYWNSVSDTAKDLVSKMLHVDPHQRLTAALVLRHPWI

- IC50 [1]: < 1 µM
Compound: C#CCNCCCn1c(C(=O)CF)c(-c2ccc(C)cc2)c2c(N)ncnc21 [propargylamine-fmk 18]
- Inhibition of rpS6 phosphorylation [2]: additive inhibition
- RSK modification in intact macrophages [3]: saturable RSK modification
- Inhibition of RSK [4]: irreversible, selective, and potent inhibition
